Patent publication US20250375458A1, “COMPOSITIONS AND METHODS TO COMBAT MULTIDRUG-RESISTANT AND […]-CELL-MEDIATED, O[…] INFECTIOUS DISEASES” (Theralase Technologies, Inc., priority 2024, published 2025)

Experiments:
[1] = system: human Herpes Simplex 1 (HSV-1) virus; experiment: HSV-1 virus yield in A549 host cells by plaque forming assay, with Bliss synergy score; format: cell-based; settings: for HSV-1 yield suppression, single agent: A549 host cells, MOI 0.3, three days, 50 nM RUVIDAR or RUTHERRIN, 1 μM Acyclovir, 0.2% DMSO
Experimental: A549 human lung cancer cells are used as a host for virus growth, treatment, and later survival quantification. A549 cells are plated overnight, then incubated for 4 hours with or without 50 nM RUVIDAR or RUTHERRIN, with or without 1 μM Acyclovir or 0.2% DMSO (concentration non-toxic for the host cells). After the initial incubation of the host cells with the compounds, the cells are infected with the human Herpes Simplex 1 (HSV-1) virus at the multiplicity of infection (MOI)=0.3 and further incubated for three days (the mentioned compounds are still present in the culture media over the full course of incubation). After that, supernatant is harvested, centrifuged to remove debris, and the yield of infectious virus is determined by plaque forming assay (PFA) using supernatant for the host cells infection. The formed plaques are counted, and virus titer is calculated as Plaque Forming Units/mL=(Plaques number*Dilution)/Volume of Virus Inoculum. Titers normalized for control titer (untreated HSV-1 and host cells) produce relative virus yield (which is equivalent to inhibition rate).
The data are presented as virus yield normalized to Control. To estimate synergistic effect of two combined compounds, synergy Bliss score was calculated, as the difference between the actual inhibiting effect of the combination and the predicted inhibiting effect under “no synergy” assumption (Bliss score): Synergy score=Inhibition_RateCompound1 & Compound2−(Inhibition_RateCompound1+Inhibition_RateCompound2−Inhibition_RateCompound1* Inhibition_RateCompound2).

[2] = system: PD-L1; experiment: PD-L1 expression by flow cytometry in T24 cells; format: cell-based, human; settings: 3 μM for 2 days, MFI normalized to untreated cells
Experimental: (§1) In the tests whose results are shown in FIGS. 8A and 8B, T24 human bladder cancer cells or U87 human glioma cells were treated with 3 μM of RUVIDAR or RUTHERRIN for 2 days, and cells were collected and stained with fluorescent-labelled antibodies to CD47 and PD-L1 and analyzed by flow cytometry. MFI was normalized to control untreated cells and expressed as percentage of change.

[3] = system: CD47; experiment: CD47 expression in A549 cells, RUVIDAR or RUTHERRIN with or without ionizing radiation; format: cell-based, human; settings: 3 μM
Experimental: In the tests whose results are shown in FIGS. 8C and 8D, U87 human glioma cells or A549 lung cancer cells were treated with 3 μM of RUTHERRIN or RUVIDAR prior to drug activation by 530 nm laser light (photodynamic therapy, PDT) or ionizing radiation. Cells were then collected and stained with fluorescent antibody to CD47 and analyzed by flow cytometry. MFI was normalized to control untreated cells and expressed as percentage of change.

[4] = system: U87 human glioma cells; experiment: Hoechst 33342 dye accumulation by flow cytometry (MFI); format: cell-based; settings: 3 μM 4 hours, then Hoechst 33342 1 hour
Experimental: (§2) Hoechst 33342 is a nuclear dye commonly used to quantify drug efflux dynamics and drug accumulation in cells. […] Cells were then collected, and the MFI was determined by flow cytometry.

[5] = system: A549 human Non-Small Cell Lung Cancer cells; experiment: as above; format: cell-based; settings: 3 μM 4 hours, then Hoechst 33342 1 hour
Experimental: as §2

[6] = system: U87 human glioma cancer cells; experiment: Presto Blue cell survival, RUVIDAR with or without N-acetylcysteine; format: cell-based; settings: overnight
Experimental: U87 human glioma cancer cells were plated overnight, then treated with different doses of RUVIDAR in the presence or absence of N-acetylcysteine, a known ROS scavenger to quench the increase in ROS production. Cells were incubated overnight, and cell survival was analyzed using Presto Blue assay.

[7] = system: CD47; experiment: CD47 expression by flow cytometry in T24 cells; format: cell-based, human; settings: 3 μM for 2 days, MFI normalized to untreated cells
Experimental: as §1

[8] = 50 nM RUVIDAR or RUTHERRIN plus 1 μM Acyclovir
[9] = 50 nM RUVIDAR or RUTHERRIN plus 0.2% DMSO

Sequence of CD47 (Q08722 19-323): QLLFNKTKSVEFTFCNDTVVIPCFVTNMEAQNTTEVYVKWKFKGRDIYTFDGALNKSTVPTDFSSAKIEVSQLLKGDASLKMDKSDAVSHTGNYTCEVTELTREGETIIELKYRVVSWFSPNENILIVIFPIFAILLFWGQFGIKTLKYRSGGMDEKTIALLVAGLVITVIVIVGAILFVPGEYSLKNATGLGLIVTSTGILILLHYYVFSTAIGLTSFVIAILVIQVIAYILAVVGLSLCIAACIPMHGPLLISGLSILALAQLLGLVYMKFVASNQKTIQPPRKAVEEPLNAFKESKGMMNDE
Sequence of PD-L1 (Q9NZQ7 19-290): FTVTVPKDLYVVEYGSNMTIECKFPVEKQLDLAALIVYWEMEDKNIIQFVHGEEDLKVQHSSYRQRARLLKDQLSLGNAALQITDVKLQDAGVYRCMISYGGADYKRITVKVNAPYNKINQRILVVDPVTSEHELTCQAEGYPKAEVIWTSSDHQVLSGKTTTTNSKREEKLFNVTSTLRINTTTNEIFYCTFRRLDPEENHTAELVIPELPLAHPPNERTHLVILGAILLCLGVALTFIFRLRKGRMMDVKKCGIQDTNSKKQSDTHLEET

With `Nc1nc2c(ncn2COCCO)c(=O)[nH]1` [Acyclovir, reference compound] the “HSV-1 yield suppression, single agent” value [1] was “anti-viral effect to various degrees”.
For `C[S+](C)[O-]` [DMSO], the “HSV-1 yield suppression, single agent” value [1] was “anti-viral effect to various degrees”.
In the case of “Ru(4,4′-dimethyl-2,2′-bipyridine)2(2-(2′,2″:5″,2″-terthiophene)-imidazo[4,5-f][1,10] phenanthroline) [RUVIDAR]”, the “percentage change in expression of PD-L1” value [2] is reported as “significantly reduced”, the “percentage change in CD47 expression, drug alone” value ([3]; no radiation) is reported as “significantly reduced” and the “percentage change in CD47 expression, with ionizing radiation” value ([3]; then ionizing radiation) is reported as “more significant reduction”. For the same compound, the “Hoechst 33342 dye accumulation (MFI)” value [4] was “increases dye accumulation inside the cells”, the “Hoechst 33342 dye accumulation (MFI)” value [5] was “increases dye accumulation inside the cells” and the cell kill percent ([6]; RUVIDAR only, different doses) was “dose-dependent increase in cell kill”. The “cell kill percent in the presence of N-acetylcysteine” value ([6]; RUVIDAR plus ROS scavenger N-acetylcysteine) was “significantly reduced”, the “HSV-1 yield suppression, combined with Acyclovir” value [1, 8] was “significantly potentiated” and the “synergy score (Bliss), combined with Acyclovir” value [1, 8] was 0.040±0.013. The “HSV-1 yield suppression, combined with DMSO” value [1, 9] was “significantly potentiated”, the “synergy score (Bliss), combined with DMSO” value [1, 9] was 0.030±0.010 and the “HSV-1 yield suppression, single agent” value [1] was “anti-viral effect to various degrees”. The “percentage change in expression of CD47” value [7] was “significantly reduced”.
